The source of these data is patent publication EP4790066A1, “GLP-1R/GIPR/GCGR TRIPLE AGONIST ANALOGUE AND USE THEREOF” (Shenzhen Bay Laboratory, priority 2023, dated 2025).

The structures appear in SMILES notation. *1 amine or outer side, *2 acyl side, *3 side chain or, on linkers, in order; H or OH if unused. Where a SMILES comes first, the peptide text is derived from it. Bridges are numbered along the chain shown (N, C = ends). [ ]: non-standard residue; d: D form. X1 = O=C(O)CCCCCCCCCCCCCCCCCCC(=O)N[C@@H](CCCCNC(=O)COCCOCCNC(=O)COCCOCCNC(=O)CCC(=O)N(CCNC(=O)C[*:1])CCNC(=O)C[*:2])C(=O)O; Phe(2-F) = N[C@@H](Cc1ccccc1F)C(=O)O; Iva = CC[C@](C)(N)C(=O)O; Aib = CC(C)(N)C(=O)O

The target in one data set is T1, GIPR (Homo sapiens, UniProt P48546).
T1 construct: expressed in transfected cells
T1 sequence (P48546 22-466): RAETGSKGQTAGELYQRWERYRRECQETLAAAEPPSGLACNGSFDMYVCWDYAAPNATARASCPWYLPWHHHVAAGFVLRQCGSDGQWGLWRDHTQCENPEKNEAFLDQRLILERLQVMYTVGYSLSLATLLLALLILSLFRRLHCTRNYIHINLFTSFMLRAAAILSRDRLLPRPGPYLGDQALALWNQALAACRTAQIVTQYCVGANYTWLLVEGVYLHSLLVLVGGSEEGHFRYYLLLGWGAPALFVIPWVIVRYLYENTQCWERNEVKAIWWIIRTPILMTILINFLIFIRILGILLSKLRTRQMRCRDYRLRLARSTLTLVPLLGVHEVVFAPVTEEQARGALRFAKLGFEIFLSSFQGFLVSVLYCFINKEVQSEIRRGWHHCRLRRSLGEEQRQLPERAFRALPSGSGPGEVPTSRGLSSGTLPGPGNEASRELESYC
The data set can be described thus: CreLuc method (CRE-luciferase reporter), HEK293/pGM-CREB-L-Luc/GIPR pool. The class given is cell-based. To be noted: 6 h incubation, read-out: EC50 (pM) for each receptor GIPR. Summed up:
(§1)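 Stable HEK293 pools co-expressing each receptor with a CRE-luciferase reporter were plated at 20,000 cells/well in freestyle medium and treated with compound dilution series for 6 h at 37 °C. Luminescence was read with ONE-GLO to derive EC50.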

For a further data set, the target named is T2, GCGR (Homo sapiens, UniProt P47871).
T2 construct: expressed in transfected cells
The data set can be described thus: CreLuc method (CRE-luciferase reporter), 293HEK/pGM-CREB-L-Luc/GCGR pool. The class given is cell-based. To be noted: 6 h incubation, read-out: EC50 (pM) for each receptor GCGR. Summed up: as §1

Data set [1] deals with T3, GLP-1R (Homo sapiens, UniProt P43220).
T3 construct: expressed in transfected cells
The experiment in a line: cAMP method (HTRF cAMP detection kit), HEK293/pGM-CREB-L-Luc/GLP-1 pool. The class given is cell-based. To be noted: read-out: EC50 (pM) for each receptor GLP-1R. (TR-FRET usually uses a lanthanide donor and a delayed reading to cut background.)

The nature of the next data set: in vivo. Also on record: species or system adult male cynomolgus monkeys. Particulars: male, cynomolgus monkey, 0.2 mg/kg. As for the experimental part:
The pharmacokinetic behavior of TG52 in non-rodents was tested. The specific steps are as follows:
The target peptide derivative TG52 to be tested was administered to adult male cynomolgus monkeys via subcutaneous and intravenous injections (0.2 mg/kg, with PBS as the drug vehicle) as a single dose, respectively. Whole blood samples were collected from the jugular vein or other appropriate vein at the following time points after administration: for SC, 0 min, 30 min, 1 h, 3 h, 7 h, 24 h, 48 h, 72 h, 120 h, 168 h, 216 h, and 264 h; for IV, 0 min, 5 min, 30 min, 1 h, 3 h, 7 h, 24 h, 48 h, 72 h, 120 h, 168 h, 216 h, and 264 h. 0.2 mL of blood was collected and transferred into a labeled EDTA-K2 anticoagulant tube. The tube was gently inverted to ensure thorough mixing of the anticoagulant (EDTA-K2) with the blood and immediately placed on wet ice. Plasma separation was performed as soon as possible by centrifugation under the following conditions: 4°C, 6800xg, for 6 min. The plasma samples were stored in a refrigerator at no higher than -20°C and used for analysis when needed. Analysis of the drug content in the blood samples was performed using the analytical method described above. Table 5C: Pharmacokinetic parameters of TG52 in cynomolgus monkeys

Data set [2] deals with T3, GLP-1R. The experiment in a line: cell-based. The class given is cell-based. Particulars: for EC50: GLP-1R CreLuc. As for the experimental part: The steps are as follows:
The stably transfected cell line HEK293/pGM-CREB-L-Luc/GLP-1R pool was constructed. […] The corresponding test cells were selected, digested (for 1 min), dispersed by pipetting, and centrifuged (1000 rpm, 5 min). The culture medium was discarded, and the cells were suspended using Freestyle culture medium, centrifuged and counted. The cells were diluted to a cell density of 5 x 10^5 cells/mL using freestyle culture medium (0% FBS) and culture medium containing 10% FBS, respectively. The cells were then added to the detection wells of a 384-well plate (40 µL/20,000 cells/well). Echo was used to add the corresponding analyte dilution series. The cell plate was incubated at 37°C and 5% CO2 for 6 h, and then ONE-GLO (20 µL/well) was added for detection. It was kept in the dark for 3 min, and then a chemiluminescent microplate reader was used for determination. The plate was read within 30 min, and the determination results were recorded. […]

T3 sequence (P43220 24-463, species assumed): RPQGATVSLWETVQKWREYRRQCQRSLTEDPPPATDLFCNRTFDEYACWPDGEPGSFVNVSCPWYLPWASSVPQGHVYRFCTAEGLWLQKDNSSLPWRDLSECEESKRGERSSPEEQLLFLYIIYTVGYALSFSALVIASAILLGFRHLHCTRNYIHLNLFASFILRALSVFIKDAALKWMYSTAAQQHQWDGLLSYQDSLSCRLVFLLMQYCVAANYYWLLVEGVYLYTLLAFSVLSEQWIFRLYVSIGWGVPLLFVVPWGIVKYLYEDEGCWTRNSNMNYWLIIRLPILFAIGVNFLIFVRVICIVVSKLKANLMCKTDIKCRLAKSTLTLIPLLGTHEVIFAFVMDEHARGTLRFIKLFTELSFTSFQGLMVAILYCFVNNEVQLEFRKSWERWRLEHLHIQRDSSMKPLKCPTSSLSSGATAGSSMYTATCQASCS
T2 sequence (P47871 26-477, species assumed): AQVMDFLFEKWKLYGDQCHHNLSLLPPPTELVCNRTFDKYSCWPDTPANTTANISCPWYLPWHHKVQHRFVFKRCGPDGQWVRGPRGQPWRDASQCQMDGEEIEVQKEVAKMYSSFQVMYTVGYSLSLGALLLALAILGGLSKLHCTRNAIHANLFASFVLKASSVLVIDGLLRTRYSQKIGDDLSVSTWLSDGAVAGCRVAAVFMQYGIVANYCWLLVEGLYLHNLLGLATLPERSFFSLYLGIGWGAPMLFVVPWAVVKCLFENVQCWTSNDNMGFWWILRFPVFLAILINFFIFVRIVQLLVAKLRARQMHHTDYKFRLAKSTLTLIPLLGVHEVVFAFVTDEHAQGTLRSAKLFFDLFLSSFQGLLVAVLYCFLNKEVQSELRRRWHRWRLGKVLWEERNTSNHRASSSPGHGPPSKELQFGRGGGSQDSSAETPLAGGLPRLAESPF

The term EC50 denotes the concentration at which the effect is half-maximal. One may read the AUC(0-inf) as total exposure, with the tail of the curve extrapolated. Low readings indicate low exposure, high ones high exposure. The AUC(0-t) is exposure summed from dosing to a finite time, without extrapolation to infinity. A lower AUC(0-t) goes with less exposure. The Vd is the apparent volume that relates the amount in the body to the concentration in plasma or blood. A low value points to confinement near the circulation. By clearance is commonly meant the volume of plasma or blood freed of the substance per unit of time. A low value points to a low capacity for elimination. In general, half-life refers to the time needed for the level to fall by half in the phase considered. A high value points to slow decline. One may read the Cmax as the peak of the concentration-time curve. One may read the Tmax as the time from dosing to the highest level. The term bioavailability denotes dose-corrected exposure relative to a reference, in per cent. Higher therefore signals much systemic uptake. With `CC[C@H](C)[C@@H]1NC(=O)[C@H](Cc2ccccc2)NC(=O)[C@@H](NC(=O)C(C)(C)NC(=O)[C@H](CCC(N)=O)NC(=O)[C@H](C)NC(=O)[C@H](CCCCNC(C)=O)NC(=O)[C@H](CCCCN)NC(=O)[C@H](CC(=O)O)NC(=O)[C@H](CC(C)C)NC(=O)[C@](C)(CC)NC(=O)[C@@H](NC(=O)[C@H](CO)NC(=O)[C@H](Cc2ccc(O)cc2)NC(=O)[C@H](CC(=O)O)NC(=O)[C@H](CO)NC(=O)[C@@H](NC(=O)[C@H](Cc2ccccc2F)NC(=O)[C@@H](NC(=O)CNC(=O)[C@H](CCC(N)=O)NC(=O)C(C)(C)NC(=O)[C@@H](N)Cc2ccc(O)cc2)[C@@H](C)O)[C@@H](C)O)[C@@H](C)CC)CSCC(=O)NCCN(C(=O)CCC(=O)NCCOCCOCC(=O)NCCOCCOCC(=O)NCCCC[C@H](NC(=O)CCCCCCCCCCCCCCCCCCC(=O)O)C(=O)O)CCNC(=O)CSC[C@@H](C(=O)NCC(=O)NCC(=O)N2CCC[C@H]2C(=O)N[C@@H](CO)C(=O)N[C@@H](CO)C(=O)NCC(=O)N[C@@H](C)C(=O)N2CCC[C@H]2C(=O)N2CCC[C@H]2C(=O)N2CCC[C@H]2C(=O)N[C@@H](CO)C(N)=O)NC(=O)[C@H](CC(C)C)NC(=O)[C@H](CC(C)C)NC(=O)[C@H](Cc2ccc(O)cc2)NC(=O)[C@H](CCC(=O)O)NC1=O` [TG52] (H-Y[Aib]QGT[Phe(2-F)]TSDYSI[Iva]LDKK(Ac)AQ[Aib]CFIEYLLCGGPSSGAPPPS-NH2; linker 21-28 via X1), the half-maximal effective concentration (EC50) at GIPR was determined as 18.9 pM. In addition, on GCGR, the EC50 was 173 pM. In addition, on GLP-1R [1], the EC50 is 4.1 pM. Besides, in the data set “in vivo” (iv), the AUC(0-inf) came to 302 µg·h/mL, the AUC(0-t) is 278 µg·h/mL, the Vd was 0.0626 L/kg and the clearance was 16 mL/day/kg. In addition, in “in vivo” (iv), the half-life was 88.3 h. In the data set “in vivo” (sc), the AUC(0-t) amounted to 199 µg·h/mL, the highest level (Cmax) was 1760 ng/mL, the time of peak concentration (Tmax) is 18.3 h and the bioavailability worked out at 75.7%. The half-life in the data set “in vivo” (sc) is 97.2 h. Moreover, the “serum albumin binding capacity” value at GLP-1R [2] was “a stronger serum albumin binding capacity”. At GLP-1R [2] (EC50 (pM) 10% FBS, 10% FBS), this compound yielded an EC50 of 861 pM. For the same compound, the concentration for a half-maximal effect (EC50) at GLP-1R [2] (0% FBS, read-out: EC50 (pM) 0% FBS) worked out at 13.1 pM.
